According to PubChem BioAssay (NCI):
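Tested at 5 concentrations; 48 h exposure; 96-well plates; endpoints linearly interpolated, else capped at highest concentration. Here, GI50 denotes the concentration required for 50% inhibition of growth. TGI: concentration producing complete growth inhibition.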

Assays:
Assay in all cases: inhibition of tumour cell growth, NCI panel, 48 h
SR leukemia = tested on: SR leukemia
IGROV1 ovarian = tested on: IGROV1 ovarian
UACC-62 melanoma = tested on: UACC-62 melanoma
SK-MEL-2 melanoma = tested on: SK-MEL-2 melanoma
PC-3 prostate = tested on: PC-3 prostate
HS 578T breast = tested on: HS 578T breast
NCI-H522 lung = tested on: NCI-H522 lung
ACHN renal = tested on: ACHN renal
NCI-H226 lung = tested on: NCI-H226 lung
SK-MEL-5 melanoma = tested on: SK-MEL-5 melanoma

| Structure (SMILES) | GI50 (SR leukemia) [µM] | TGI (SR leukemia) [µM] | GI50 (IGROV1 ovarian) [µM] | TGI (IGROV1 ovarian) [µM] | GI50 (UACC-62 melanoma) [µM] | TGI (UACC-62 melanoma) [µM] | GI50 (SK-MEL-2 melanoma) [µM] | TGI (SK-MEL-2 melanoma) [µM] | GI50 (PC-3 prostate) [µM] | TGI (PC-3 prostate) [µM] | GI50 (HS 578T breast) [µM] | TGI (HS 578T breast) [µM] | GI50 (NCI-H522 lung) [µM] | TGI (NCI-H522 lung) [µM] | GI50 (ACHN renal) [µM] | TGI (ACHN renal) [µM] | GI50 (NCI-H226 lung) [µM] | TGI (NCI-H226 lung) [µM] | GI50 (SK-MEL-5 melanoma) [µM] | TGI (SK-MEL-5 melanoma) [µM] |
| --- | --- | --- | --- | --- | --- | --- | --- | --- | --- | --- | --- | --- | --- | --- | --- | --- | --- | --- | --- | --- |
| CCCC(=O)NNc1[nH]c(-c2ccc(OC)cc2)cc1C(=O)OCC | 28.3 | > 100 | 21.2 | 39.5 | 16.4 | 30 | 4.59 | 8.48 | 19.4 | 41.4 | 21.7 | 57.9 | 24 | 50 | 10.9 | 22.9 | 16.1 | 30.1 | 18.5 | 33.2 |
| O=C(O)CC1(C(=O)O)CCCCC1 | – | > 100 | – | > 100 | – | > 100 | – | > 100 | – | > 100 | – | > 100 | – | > 100 | – | > 100 | – | > 100 | – | > 100 |
| C[C@]12CCC(=O)C=C1CC[C@@H]1[C@@H]2CC[C@]2(C)C(=O)/C(=C/c3cccc(OCCN4CCOCC4)c3)C[C@@H]12 | 4.72 | 22 | 23.5 | 95.9 | 11 | 27.5 | 16.1 | 34.4 | 3.15 | 29.2 | 16.6 | 66.7 | 8 | 26.4 | 18.7 | > 100 | 14.2 | > 100 | 4.17 | 15.7 |
| CN1CCN(Cc2ccc(Nc3ncc(Cl)c(Nc4ccccc4S(=O)(=O)N(C)C)n3)cc2)CC1 | < 0.01 | – | 0.0249 | 1.63 | 0.0229 | 0.18 | 0.0458 | 0.172 | 0.0731 | > 100 | 0.0984 | 1.18 | < 0.0246 | 0.255 | – | – | 0.0915 | 0.859 | 0.0759 | 0.387 |
